Measurements: US20260102359A1, “COMBINATION TREATMENT OF DERMAL AND TRANSDERMAL FIBROTIC DISEASES, DISORDERS AND ASSOCIATED PAIN AND INFLAMMATION” (ERESINA, LLC, priority 2022, published 2026)
Counter-ions that a name gives are not always drawn. Where a SMILES comes first, the peptide text is derived from it.

tested on: hDMFa myofibroblast cells

Row | Compound | Compound Myofibroblast Cytotoxicity Activity
1 | COC(=O)N[C@H](C(=O)N[C@@H](Cc1ccccc1)[C@@H](O)CN(Cc1ccc(-c2ccccn2)cc1)NC(=O)[C@@H](NC(=O)OC)C(C)(C)C)C(C)(C)C [Cmpd 138, Atazanavir] | ++
2 | CO[C@H]1/C=C/O[C@@]2(C)Oc3c(C)c(O)c4c(O)c(c(/C=N/N5CCN(C6CCCC6)CC5)c(O)c4c3C2=O)NC(=O)/C(C)=C\C=C\[C@H](C)[C@H](O)[C@@H](C)[C@@H](O)[C@@H](C)[C@H](OC(C)=O)[C@@H]1C [Cmpd 834, Rifapentine] | +++
3 | CC1=C(C(=O)O)N2C(=O)[C@@H](NC(=O)[C@H](N)c3ccc(O)cc3)[C@H]2SC1 [Cmpd 227, Cefadroxil (hydrate)] | ++
4 | COc1ccc2cc1Oc1ccc(cc1)C[C@H]1c3cc(c(OC)cc3CCN1C)Oc1c(OC)c(OC)cc3c1[C@H](C2)N(C)CC3 [Cmpd 936, Tetrandrine] | ++
5 | CC(=O)c1c(C)c2cnc(Nc3ccc(N4CCNCC4)cn3)nc2n(C2CCCC2)c1=O.Cl [Cmpd 763, PD 0332991 (Palbociclib) HCl] | ++++
6 | N[C@@H](CCC(=O)N[C@@H](CS)C(=O)NCC(=O)O)C(=O)O [Cmpd 585, L-Glutathione Reduced] | ++++
7 | O=C1O[C@H](CO)[C@@H](O)[C@H](O)[C@H]1O [Cmpd 338, delta-Gluconolactone] | ++
8 | CCCCCCCCCCCCCCCCOP(=O)([O-])OCC[N+](C)(C)C [Cmpd 677, Miltefosine] | +++++
9 | CC1Cc2ccccc2N1NC(=O)c1ccc(Cl)c(S(N)(=O)=O)c1 (stereo not drawn) [Cmpd 527, Indapamide] | +++
10 | COc1ccc([C@@H]2CC(=O)c3c(O)cc(O[C@@H]4O[C@H](CO)[C@@H](O)[C@H](O)[C@H]4O[C@@H]4O[C@@H](C)[C@H](O)[C@@H](O)[C@H]4O)cc3O2)cc1O [Cmpd 702, Neohesperidin] | ++
11 | Cc1c(C)c2c(c(C)c1O)CCC(C)(COc1ccc(CC3SC(=O)NC3=O)cc1)O2 (stereo not drawn) [Cmpd 976, Troglitazone] | +++
12 | Nc1ccc(S(N)(=O)=O)cc1 [Cmpd 898, Sulfanilamide] | ++++
13 | CN(C(=O)c1c(O)c2ccccc2n(C)c1=O)c1ccccc1 [Cmpd 841, Roquinimex] | ++
14 | CC(=O)O[C@]1(C(C)=O)CC[C@H]2[C@@H]3C[C@H](C)C4=CC(=O)CC[C@]4(C)[C@H]3CC[C@@]21C [Cmpd 643, Medroxyprogesterone acetate] | ++
15 | NCC(=O)NCC(=O)O [Cmpd 489, Glycylglycine] (H-Gly-Gly-OH) | ++
16 | CC(C)(O)c1ccccc1CC[C@@H](SCC1(CC(=O)O)CC1)c1cccc(/C=C/c2ccc3ccc(Cl)cc3n2)c1 [Cmpd 689, Montelukast Sodium] | +++++
17 | COCCCC/C(=N\OCCN)c1ccc(C(F)(F)F)cc1 [Cmpd 466, Fluvoxamine maleate] | ++
18 | CCCCC/C=C\C/C=C\CCCCCCCC(=O)O [Cmpd 591, Linoleic Acid] | +++
19 | Nc1ccc(S(=O)(=O)Nc2nccs2)cc1 [Cmpd 900, Sulfathiazole] | ++++
20 | CN1CCN(CCCN2c3ccccc3Sc3ccc(Cl)cc32)CC1 [Cmpd 797, Prochlorperazine] | +++++

Row | Compound | Compound Myofibroblast Cytotoxicity Activity
21 | NC(=O)CC[C@@H](N)C(=O)O [Cmpd 346, D-Glutamine] | ++
22 | CCC(C)(C)c1ccc(CC(C)CN2C[C@@H](C)O[C@@H](C)C2)cc1 (stereo partly drawn) [Cmpd 113, Amorolfine HCl] | +++
23 | C[C@H](Oc1cc(-c2cnn(C3CCNCC3)c2)cnc1N)c1c(Cl)ccc(F)c1Cl [Cmpd 29, (S)-Crizotinib] | ++++
24 | Nc1ncnc2c1ncn2[C@@H]1O[C@H](COP(=O)(O)OP(=O)(O)OP(=O)(O)O)[C@@H](O)[C@H]1O [Cmpd 91, Adenosine 5-triphosphate] | +++
25 | Cc1[nH]c(/C=C2\C(=O)Nc3ccccc32)c(C)c1CCC(=O)O [Cmpd 979, TSU-68 (SU6668, Orantinib)] | ++
26 | O=C(O)[C@@H]1CCCN1 [Cmpd 612, L-Proline] | ++++
27 | Cn1c(=O)cc(N2CCC[C@@H](N)C2)n(Cc2ccccc2C#N)c1=O [Cmpd 100, Alogliptin Benzoate] | +++
28 | Nc1cccc2c1CN(C1CCC(=O)NC1=O)C2=O (stereo not drawn) [Cmpd 578, Lenalidomide (CC-5013)] | ++
29 | CO[C@@H]1[C@H](N(C)C(=O)c2ccccc2)C[C@H]2O[C@]1(C)n1c3ccccc3c3c4c(c5c6ccccc6n2c5c31)C(=O)NC4 [Cmpd 674, Midostaurin (PKC412)] | ++
30 | O=C(O)Cc1ccc(-c2ccccc2)cc1 [Cmpd 60, 4-Biphenylacetic acid] | ++
31 | CC(=O)Nc1c(I)c(NC(C)=O)c(I)c(C(=O)O)c1I [Cmpd 348, Diatrizoic acid] | ++
32 | CCCCCCCCCCCCOS(=O)(=O)O [Cmpd 871, Sodium dodecyl sulfate] | +++++
33 | Cl.NCc1ccc(S(N)(=O)=O)cc1 [Cmpd 627, Mafenide hydrochloride] | ++
34 | COC(=O)c1ccccc1O [Cmpd 659, Methyl salicylate] | ++
35 | CO/N=C(\C(=O)N[C@@H]1C(=O)N2C(C(=O)[O-])=C(CSC(=O)c3ccco3)CS[C@H]12)c1csc(N)n1.[Na+] [Cmpd 237, Ceftiofur sodium] | ++
36 | OC[C@@H](O)[C@@H](O)[C@H](O)[C@@H](O)CO [Cmpd 882, Sorbitol] | ++++
37 | COc1cc2nccc(Oc3ccc(NC(=O)C4(C(=O)Nc5ccc(F)cc5)CC4)cc3)c2cc1OC.O=C(O)C[C@H](O)C(=O)O [Cmpd 199, Cabozantinib malate (XL184)] | ++
38 | CC(C)(CO)[C@H](O)C(=O)NCCCO [Cmpd 390, D-Panthenol] | ++
39 | Cilengitide [Cmpd 261] | ++++
40 | Teicoplanin [Cmpd 921] | +++

Row | Compound | Compound Myofibroblast Cytotoxicity Activity
41 | O=c1[nH]c2ccccc2n1CCCN1CCC(n2c(=O)[nH]c3cc(Cl)ccc32)CC1 [Cmpd 378, Domperidone] | ++
42 | Cc1nc(Nc2ncc(C(=O)Nc3c(C)cccc3Cl)s2)cc(N2CCN(CCO)CC2)n1 [Cmpd 327, Dasatinib hydrochloride] | +++
43 | Cc1cnc(Nc2ccc(OCCN3CCCC3)cc2)nc1Nc1cccc(S(=O)(=O)NC(C)(C)C)c1 [Cmpd 937, TG101348 (SAR302503)] | ++++
44 | CO[C@H]1C[C@@H]2CC[C@@H](C)[C@@](O)(O2)C(=O)C(=O)N2CCCC[C@H]2C(=O)O[C@H]([C@H](C)C[C@@H]2CC[C@@H](OCCO)[C@H](OC)C2)CC(=O)[C@H](C)/C=C(\C)[C@@H](O)[C@@H](OC)C(=O)[C@H](C)C[C@H](C)/C=C/C=C/C=C/1C [Cmpd 446, Everolimus (RAD001)] | +++++
45 | OC[C@H]1O[C@H](O[C@H]2[C@H](O)[C@@H](O)[C@@H](O[C@H]3[C@H](O)[C@@H](O)C(O)O[C@@H]3CO)O[C@@H]2CO)[C@H](O)[C@@H](O)[C@@H]1O (mixture of isomers) [Cmpd 634, Maltotriose] | +++
46 | CC[C@H]1CN2CC[C@H]1C[C@@H]2[C@@H](O)c1ccnc2ccc(OC)cc12 [Cmpd 508, Hydroquinidine] | ++
47 | CC1CC(OC(=O)C(O)c2ccccc2)CC(C)(C)C1 (stereo not drawn) [Cmpd 301, Cyclandelate] | +++
48 | CN(C)[C@@H]1C(O)=C(C(N)=O)C(=O)[C@@]2(O)C(O)=C3C(=O)c4c(O)ccc(Cl)c4[C@@](C)(O)[C@H]3C[C@@H]12 [Cmpd 256, Chlortetracycline HCl] | ++
49 | CC/C=C\C/C=C\C/C=C\C/C=C\C/C=C\CCCC(=O)O [Cmpd 408, Eicosapentaenoic Acid] | +++
50 | O=C1CN(/N=C/c2ccc(-c3ccc([N+](=O)[O-])cc3)o2)C(O)=N1 [Cmpd 320, Dantrolene, sodium salt] | ++++
51 | CC(C)/N=c1\cc2n(-c3ccc(Cl)cc3)c3ccccc3nc-2cc1Nc1ccc(Cl)cc1 [Cmpd 283, Clofazimine] | ++
52 | Nc1ccc(S(=O)(=O)Nc2ccnn2-c2ccccc2)cc1 [Cmpd 899, Sulfaphenazole] | +++
53 | CC1(C)CCC(c2ccc(Cl)cc2)=C(CN2CCN(c3ccc(C(=O)NS(=O)(=O)c4ccc(N[C@H](CCN5CCOCC5)CSc5ccccc5)c(S(=O)(=O)C(F)(F)F)c4)cc3)CC2)C1 [Cmpd 77, ABT-263 (Navitoclax)] | +++++
54 | CCC/C=C1\OC(=O)C2=C1CCC=C2 [Cmpd 2, Z-Ligustilide] | ++
55 | Cc1nc(Nc2ncc(C(=O)Nc3c(C)cccc3Cl)s2)cc(N2CCN(CCO)CC2)n1.O [Cmpd 328, Dasatinib Monohydrate] | +++
56 | CC(C)C[C@H](N)C(=O)O [Cmpd 596, L-Leucine] | +++
57 | Icatibant Acetate [Cmpd 514] | ++
58 | C=C1CC[C@H]2C(=C)CC[C@H]3C(=C)C(=O)O[C@@H]3[C@@H]12 [Cmpd 336, Dehydrocostus Lactone] | +++++
59 | OC[C@H]1O[C@H](OC[C@H]2O[C@H](O[C@]3(CO)O[C@H](CO)[C@@H](O)[C@@H]3O)[C@H](O)[C@@H](O)[C@@H]2O)[C@H](O)[C@@H](O)[C@H]1O [Cmpd 308, D-(+)-Raffinose (hydrate)] | ++
60 | O=S(=O)([O-])c1cc(O)ccc1O.O=S(=O)([O-])c1cc(O)ccc1O.[Ca+2] [Cmpd 205, Calcium dobesilate] | ++
